Measured values as given in a melting point compilation (Tetko et al.; mined from patent text by program, amines drawn as free bases though some values may be those of a salt).

SMILES	melting point
NNC1=Nc2ccc(C(F)(F)F)cc2C(c2ccccc2)=NC1	127 °C
Nc1ncc2c(n1)-c1ccccc1C(c1ccccc1)=NC2	201 to 205 °C
CCOc1nc(OCC)nc(-n2nc(SC)nc2N)n1	201 °C
Cc1cc(-c2ccco2)ccc1-c1cc(C(F)(F)F)nn1-c1ccc(S(C)(=O)=O)c(F)c1	77 to 79 °C
Oc1ccccc1-c1ccnc(-c2ccccc2)n1	195 to 198 °C
C=C1CCCCC1(C(=S)NC)c1cccnc1 (centres undefined)	106 to 108 °C
Clc1ccc2c(c1)C(c1ccccc1)=NCc1nnc(CN3CCCCC3)n1-2	202 to 203 °C
NC(N)=Nc1nc(-c2csc(CNC(=O)CO)n2)cs1	239 °C
O=C1C=CC(O)(c2cc3ccccc3n2S(=O)(=O)c2ccccc2)C=C1	170 to 172 °C
O=[N+]([O-])c1ccc(O)c(CSCC(O)CO)c1 (centres undefined)	130 °C
CC(C)(C)C(Cl)=C(C#N)C#N	52 to 53 °C
COc1ccc(-c2cc(Oc3c(C)cc(C)cc3C)nc(C)n2)cc1OC	122 to 125 °C
O=C(Nc1cccc(-c2ccnc3c(C(=O)c4cccs4)cnn23)c1)c1ccco1	> 240 °C
Cc1c(-c2ncncc2Cl)ssc1=S	100 °C
CC(=O)C1(Nc2ccccc2)CCN(CCc2ccccc2)CC1	101 °C
COCCOCCN1C(=O)C2(COc3cc4c(cc32)OCCO4)c2c(OC)cc(OC)cc21 (centres undefined)	158 to 160 °C
COc1ccccc1Oc1c(NS(=O)(=O)c2ccc(C(C)(C)C)cc2)nc(SC)nc1OCCOc1ncc(Br)cn1	117 to 121 °C
Oc1ccc2c(-c3ccco3)nn(Cc3ccccc3F)c2n1	250 °C
OCCn1nnnc1S	135 to 137 °C

SMILES	melting point
C=CCc1c(O)c(Cl)c(Cl)c2c1CC(C)(c1ccccc1)C2=O (centres undefined)	125 °C
CSc1cnc(NC(=O)c2ccccc2OC(C)=O)s1	145 to 147 °C
CN(C(=O)CCSC(c1ccccc1)(c1ccccc1)c1ccccc1)c1nnc(-c2cccnc2)s1	60 to 75 °C
Nc1cc(-c2nnc(SCc3ccc(F)cc3)o2)ccn1	200 to 201 °C
Nc1ccc(Oc2cccc(Oc3ccc(N)cc3)n2)cc1	152 to 154 °C
O=C(Cn1c(-c2ccc(Br)cc2)nc2cccnc21)Nc1ccccc1Cl	230 to 232 °C
C=Cc1noc(C2=CCCN(C(=O)OC(C)(C)C)C2)n1	81 to 82 °C
O=C(c1cccnc1)N1N=CCC1c1ccco1 (centres undefined)	91 to 93 °C
OC[C@@H]1CC=CC[C@@H]1CO	33 to 35 °C
COc1ccc2c(c1)C(=O)N(c1cnc3c(ccn3C)c1)C2	198 to 199 °C
O=c1cc(O)c2cccc([N+](=O)[O-])c2o1	242 to 245 °C
NNc1ccc(S(N)(=O)=O)cc1	169 to 171 °C
C#CCOC(=O)N(I)C(C)C(=O)O (centres undefined)	95 to 99 °C
CCc1cc(CC)n2ncc(Br)c2n1	64 to 65 °C
Cc1ccccc1NNC(=O)c1ccccc1C(F)(F)F	55 to 57 °C
O=[N+]([O-])c1ccc(F)c(-c2cccs2)c1	65 °C
Cc1c(C(O)C(F)(F)F)oc2c(Br)cccc12 (centres undefined)	93 °C
OCCC(O)OCn1cc(Cl)c2c(Cl)ncnc21 (centres undefined)	142 to 143 °C
O=C(O)c1cn(-c2cccnc2)c2c(F)c(F)c(F)cc2c1=O	122 to 124 °C

SMILES	melting point
Cc1ccc(CSc2c(O)cc(-c3ccccc3)oc2=O)cc1	164 to 165 °C
CCOC(=O)Nc1ncc(-c2nc3ccccc3c(=O)n2-c2ccc(OC)cc2)s1	222 to 224 °C
NCCNC(=S)Nc1c(Cl)cccc1Cl	136 to 138 °C
CNc1nc(CSC)c(-c2ccncc2)s1	135 to 138 °C
O=C(Nc1ccnn1-c1c(F)c(F)c(C(F)(F)F)c(F)c1F)C(Cl)Cl	112 to 114 °C
O=c1c2ccccc2oc2cccn12	129 to 130 °C
CC(C)=CCNc1ncnc2c1nc(N)n2C1OC(CO)C(O)C1O (centres undefined)	121 to 124 °C
CN(C)c1ccc(O)c(CNCCc2ccc(N=C(N)c3cccs3)cc2)c1	182 to 183 °C
Cc1nc2c3c(ccc2n1C)C(=O)N1C(=O)C(C)(C(C)C)N=C31 (centres undefined)	258 to 263 °C
COc1cc2c(CCN)c[nH]c2cc1Cl	150 °C
CON1CCC2(CC1)C(=O)C(c1c(C)ccc(Cl)c1C)([N+](=O)[O-])C(=O)N2OC (centres undefined)	94 to 97 °C
COc1ccc(-c2cn(-c3ccc(C(F)(F)F)cc3F)nn2)cc1	152 to 154 °C
O=C(Nc1cccnn1)N1CCN(c2nc(-c3cccc(F)c3)cs2)CC1	176 to 177 °C
C=CCSc1nnc(OC)c(C)c1C	51 to 53 °C
N#CC(=Cc1ccc[nH]1)c1cccnc1	139 to 142 °C
OCc1ccccc1-c1cc(-c2ccccc2)on1	68 to 70 °C
CCOCc1nc2c(N)nc3cc(-c4cccnc4)cnc3c2n1CC(C)C	177 to 179 °C
Cc1cc(Br)ccc1N1C(=O)c2ccc(Cl)cc2C1=O	210 to 212 °C
CN1CCn2nc(Nc3cc(-c4cccc(N5Cc6cc(N(C)C)ccc6C5=O)c4CO)cn(C)c3=O)cc2C1	148 to 150 °C

Next, values leading:

melting point	SMILES
99 to 101 °C	CC(/C=C/C(=O)OC(C)(C)C)=C\c1ccc(N)cc1
121 to 123 °C	CCCc1cc(NC(=O)N2CCN(c3cc(F)cc(F)c3)CC2)c(OC)nc1C
123 to 126 °C	COc1cc2c(cc1O)C(Cc1cc(Cl)ccc1[N+](=O)[O-])N(C)CC2 (centres undefined)
130 to 131 °C	CCOC(=O)C1=C(C)NC(c2ccco2)=C(C(=O)OCC)C1c1cccc([N+](=O)[O-])c1 (centres undefined)
140 to 142 °C	CC(=O)n1ncc2c(O)cccc21
64 to 65 °C	Cc1cccc(CON2C(C)(C)CC(OC(=O)c3ccccc3)CC2(C)C)c1
140 °C	O=C(O)c1cc([N+](=O)[O-])cc(S(F)(F)(F)(F)F)c1
214 to 215 °C	CCCCC[C@H]1CC[C@H](/C=C/COc2ccc(C(=O)O)cc2)CC1
114 to 115 °C	Cc1cc(CSCCNC(=C[N+](=O)[O-])NCC(O)c2ccccc2)sc1CN(C)C (centres undefined)
95.1 to 96 °C	CCOC(=O)C(Cc1ccc(OCCc2nc(-c3ccccc3)oc2C)cc1)C(=O)O (centres undefined)
169 to 170 °C	CC1CNc2c3c(nc4cccc(c24)O1)CCCC3 (centres undefined)
111 to 116 °C	COc1cc(C2CCN(C(=O)C3CCN3)CC2)ccc1Nc1ncc2ccc(-c3ccccc3N(C)S(C)(=O)=O)n2n1 (centres undefined)
191 to 193 °C	CC(C)(C(=O)NC1CCCCC1)c1ccc(S(=O)(=O)/C=C/C#N)cc1
171 to 172 °C	CC(C)C(c1cncnc1C=NO)N(C)C(=O)Cc1ccccc1 (centres undefined)
184 to 185 °C	CC(=O)N1CCCn2nc(-c3ccncc3)c(-c3ccc(F)cc3)c21
171 to 173 °C	C=C(C)C(=O)Nc1cccc(O)c1
108 to 110 °C	O=C1CCCCN1c1ccc(I)cc1
223 to 224 °C	CCCCOc1c(CNC(=O)OC(C)(C)C)n(CC(C)C)c(=O)c2ccc(-c3noc(=O)[nH]3)cc12
64 °C	CCCC1CCC(C#Cc2ccc(OCC)c(F)c2F)CC1 (centres undefined)
171 to 172 °C	COc1ccc(-c2ccc(C(=O)Nc3ccc4cc(CN5CCCCCC5)cnc4c3C)c(F)c2)cc1
188 to 194 °C	CCCn1c(=O)c2[nH]c(C3CCC(C(=O)OC)C3)nc2n(CCC)c1=O (centres undefined)
229 to 232 °C	O=C(O)C1CC(=O)N(c2ccccc2)C1c1cccnc1 (centres undefined)
92 to 94 °C	COCCc1ccc(OCC(O)C(C)(C)[N+](=O)[O-])cc1 (centres undefined)
232 °C	COc1ccc(C2C(C(=O)c3ccc(N4CCOCC4)cc3)=C(O)C(=O)N2c2ccc(C)nn2)cc1 (centres undefined)

melting point	SMILES
116 to 118 °C	CCOC(=O)/C=C/c1ccc(C#Cc2ccc3c(c2)C(C)(C)CCC3(C)C)cc1
151 to 153 °C	COc1cc2c(cc1C)C1(CO2)C(=O)N(CC2CCCO2)c2ccccc21 (centres undefined)
87 to 88 °C	CN[C@H]1CC[C@H](CO)CC1
172 to 173 °C	O=C(NCCO)c1cccc(-c2ccc3c(c2)N(c2ccc(Cl)cc2Cl)CCCC3)c1
134 to 136 °C	CC(CSC(=O)C(C)(C)C)C(=O)N1C(C(=O)O)CC2CCCCC21 (centres undefined)
119 to 121 °C	O=C(CCCN1CCN(c2ccccc2Cl)CC1)N1CCc2ccccc21
209 to 211 °C	O=C(Nc1ccc2cc(CN3CCCC3)ccc2c1)N1CCC(c2ccc(F)cc2)CC1
140 to 142 °C	Cc1ccc(-c2nnc(N3CCC(C)CC3)nc2-c2ccc(C)cc2)cc1
164 to 165 °C	CC(=O)NC[C@H]1CN(c2ccc(C3=CCCN(C(=O)OC(C)(C)C)CC3)c(F)c2)C(=O)O1
93.9 to 94 °C	COCOc1ccc(C=O)c(Oc2ncc(C(F)(F)F)cc2Cl)c1
196 to 198 °C	CCOC(=O)c1c2ccc(CC(=O)NOCC(=O)N3CCOCC3)ccc-2c(C(=O)OCC)c1N
180 to 182 °C	CCOC(=O)c1cc2c(Cl)c(F)ccc2[nH]1
233 to 234 °C	N=C(N)N1CCC2c3ccccc3CN21 (centres undefined)
134 to 135 °C	CC1(C)CC(=C(c2ccc(O)cc2)c2ccc(F)cc2)CC(C)(C)C1
108 to 110 °C	Cc1c(CC(=O)OCCCO)cc(-c2ccc(S(C)(=O)=O)cc2)n1-c1ccccc1
94 to 96.5 °C	CCC(C(=O)N(C)C)n1cc(Cl)c(-c2ccccc2)n1 (centres undefined)
140 to 145 °C	C=CCOC(=O)c1ccc(C(=O)NCc2ccc3c(c2CO)C(C)(C)CCC3(C)C)cc1
244 to 247 °C	CC1NC(=O)NN=C1c1ccc(NC(=O)CN2CCOCC2)cc1 (centres undefined)
259 to 261 °C	Cn1cc(C2=C(c3c4n(c5ccccc35)CCC(COS(C)(=O)=O)C4)C(=O)NC2=O)c2ccccc21 (centres undefined)
80 to 84 °C	CN1CCN(c2cc(Br)cc3c2c(=O)n(Cc2ccccc2)c(=O)n3Cc2ccccc2)CC1
124 to 128 °C	COC(=O)CCC(C)C1CCC2C3=CC=C4C(C)(C)C(O)CCC4(C)C3CCC21C (centres undefined)
81 to 86 °C	CCCCCCCCCCCCCCCCCCNCC(O)COc1ccc(Nc2ccccc2)cc1 (centres undefined)
110 °C	CCCCc1nc(CO)c(SCC)n1Cc1ccc(-c2ccccc2C(=O)OC)cc1
